Consider nine molecules from patent US20210017569A1, “Ligase Screening Assay” (UNIVERSITY OF DUNDEE, priority 2018, published 2021).

Type in all cases: biochemical
One assay has as its target T1, GST-MYCBP2cat (Homo sapiens, UniProt O75592).
T1 construct: GST-tagged MYCBP2cat (Ser4378-Phe4640), wt and mutants, were expressed at 16° C. overnight; made in house; host or cells: E. coli BL21-DE3
T1 sequence (O75592 4416-4678 limits assumed): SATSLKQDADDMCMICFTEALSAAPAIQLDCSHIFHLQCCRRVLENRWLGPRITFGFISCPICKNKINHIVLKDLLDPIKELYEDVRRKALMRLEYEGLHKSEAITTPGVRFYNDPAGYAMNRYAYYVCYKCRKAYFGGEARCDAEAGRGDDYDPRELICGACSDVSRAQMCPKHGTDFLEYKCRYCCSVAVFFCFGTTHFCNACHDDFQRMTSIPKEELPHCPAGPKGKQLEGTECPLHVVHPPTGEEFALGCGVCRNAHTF
In words: Multiple turnover E2 discharge panel (threonine discharge). Conditions: 17 E2s tested. The method, then:
E2s were screened for threonine discharge activity with GST-MYCBP2cat as described for the amino acid panel. E2s were also incubated in the presence of threonine but in the absence of GST-MYCBP2cat. These samples provided a reference to distinguish between intrinsic E2˜Ub instability and E3-dependent discharge.

In a further assay the target is T2, GST-MYCBP2 (Homo sapiens, UniProt O75592).
T2 construct: GST-tagged MYCBP2cat (Ser4378-Phe4640), wt and mutants, were expressed at 16° C. overnight; made in house; host or cells: E. coli BL21-DE3
T2 sequence (O75592 4416-4678 limits assumed): T1 sequence (O75592 4416-4678 limits assumed)
In words: Multiple turnover amino acid and peptide panel discharge assays. Conditions: for function as proxy substrate (hydroxy probe) of MYCBP2: tested herein as proxy substrates; for discharge activity / Ub modification in amino acid panel: amino acid nucleophile, UBE2D3~Ub, MYCBP2cat. Here is the method: Stock solutions (0.5 M) of amino acids were dissolved in MQ water and pH was adjusted to pH ˜8. Peptides of the sequence Ac-EGXGN-NH2 (X=K, S or T) were obtained from Bio-Synthesis Inc. Stock peptide solutions (200 mM) were dissolved in MQ water and pH was adjusted to pH ˜8. An E2 (UBE2D3) charging reaction was carried out in buffer (40 mM Na2HPO4—HCl pH 8.0, 150 mM NaCl, 0.5 mM TCEP) containing UBE1 (250-500 nM), UBE2D3 (20 μM), Ub (50 μM), or Cy3B-Ub (25 μM), MgCl2 (5 mM) and ATP 10 (mM). The reaction was incubated at 37° C. for 15 minutes and then equilibrated to 23° C. for 3 minutes. An equivalent volume of nucleophile sample containing small molecule/peptide nucleophile (100 mM) and GST-MYCBP2 (10 μM) was then added and incubated at 23° C. Samples were taken at the specified time points and analyzed as described for Tris/glycerol-mediated E2 discharge assay.
Cy3B-Ub was visualized using a Chemidoc Gel Imaging System (Biorad). LC-MS was carried out as described for Tris/glycerol discharge but amino acid substrate samples were quenched by the addition of 2:1 parts quenching solution (75% acetonitrile, 2% TFA) and peptide substrate samples were quenched by addition of 1:1 parts quenching solution.

For a further assay, the target named is T3, MYCBP2cat (Homo sapiens, UniProt O75592).
T3 construct: GST-tagged MYCBP2cat (Ser4378-Phe4640), wt and mutants, were expressed at 16° C. overnight; GST (N, cleaved yes); made in house; host or cells: E. coli BL21-DE3
T3 sequence (O75592 4416-4678 limits assumed): T1 sequence (O75592 4416-4678 limits assumed)
In words: NMNAT2 ubiquitination assay. Conditions: base lability and thiol resistance test. The method, then:
NMNAT2 (5 μM) was mixed with E1 (500 nM), UBE2D3 (10 μM), MYCBP2cat (10 μM), Ub (50 μM), ATP (10 mM) and made up with 10×pH 7.5 buffer (40 mM Na2H2PO4 pH 7.5, 150 mM NaCl, 5 mM MgCl2, 0.5 mM TCEP). The reactions were incubated at 37° C. for 1 hour and terminated by the addition of 4×LDS loading buffer (either non-reducing or reducing). For base lability test, reactions were supplemented with 0.14 N NaOH and then further incubated at 37° C. for 20 minutes.

For the next assay, the target named is T4, MYCBP2 (Homo sapiens, UniProt O75592).
T4 construct: GST-tagged MYCBP2cat (Ser4378-Phe4640), wt and mutants, were expressed at 16° C. overnight; GST (N); made in house; host or cells: E. coli BL21-DE3
T4 sequence (O75592 4416-4678 limits assumed): T1 sequence (O75592 4416-4678 limits assumed)
In words: Tris/glycerol-mediated E2 discharge assay with LC-MS analysis. Conditions: Tris 50 mM and glycerol ~65 mM in assay buffer. Here is the method:
Assays were carried out in buffer (50 mM Tris-HCl pH 7.5, 150 mM NaCl, 0.5 mM TCEP, 5 mM MgCl2) containing the indicated MYCBP2 mutant (15 μM), UBE1 (1.5 μM), UBE2D3 (15 μM), Ub (37 μM) and ATP (10 mM). The reactions were incubated at 37° C. for 30 minutes. Reactions were terminated by the addition of 4×LDS loading buffer (with and without ˜680 mM 2-mercaptoethanol). A C4572S sample was further incubated with 0.14 N NaOH at 37° C. for 20 minutes and samples were resolved by SDS-PAGE (4-12% NuPage gel) and visualized by Coomassie staining.
Reactions were prepared as described for discharge assay. After 30 minutes, the reaction was analyzed using an Agilent 1200/6130 LC-MS system (Agilent Technologies) using a 10-75% gradient over 20 minutes (buffer A=H2O+0.05% TFA, buffer B=acetonitrile+0.04% TFA).

As for UBE2D1: E2 conjugating enzyme, the “E2 partner activity with MYCBP2cat” value with GST-MYCBP2cat is “robust activity”.

As to `N[C@@H](CO)C(=O)O` [serine], the “function as proxy substrate (hydroxy probe) of MYCBP2” value (“function as proxy substrate” below) at GST-MYCBP2 is on record as “functional”.

On to `NCCCC[C@H](N)C(=O)O` [lysine], for which, at GST-MYCBP2, the “discharge activity / Ub modification in amino acid panel” value was “low level”.

On to `O=S(=O)(O)CCN1CCN(CCO)CC1` [HEPES, 4-(2-hydroxyethyl)-1-piperazineethanesulfonic acid], for which, at GST-MYCBP2, the “function as proxy substrate” value was “functional”.

As to “NMNAT2: Nicotinamide Mononucleotide Adenyltransferase, putative MYCBP2 substrate”, the “ubiquitination by MYCBP2cat in vitro” value in the assay with MYCBP2cat was “hydroxide labile but thiol resistant ubiquitination”.

For “UBE2D3: E2 conjugating enzyme, N-terminally 6His-tagged recombinant protein”, the “E2 partner activity with MYCBP2cat” value with GST-MYCBP2cat was “robust activity”.

tris(hydroxymethyl)aminomethane: on GST-MYCBP2, the “function as proxy substrate” value was “functional”. The “conversion of Ub into condensation product with nucleophile” value on MYCBP2 is recorded as “quantitatively converted”.

For `C[C@@H](O)[C@H](N)C(=O)O` [threonine], at GST-MYCBP2, the “discharge activity / Ub modification in amino acid panel” value is on record as “strikingly enhanced” and the “function as proxy substrate” value is given as “functional”. Moreover, the “selectivity for threonine over serine” value at GST-MYCBP2 (amino acid substrates, MS-based quantification of Ub esterification) is reported as approximately 10 fold. Moreover, the “Threonine selectivity in a peptide context” value at GST-MYCBP2 (peptides Ac-EGXGN-NH2 (X=K, S or T)) worked out at 3 fold.

With `OCC(O)CO` [glycerol], at GST-MYCBP2, the “function as proxy substrate” value is “functional”. Moreover, the “conversion of Ub into condensation product with nucleophile” value at MYCBP2 is listed as “quantitatively converted”.
